According to ChEMBL document CHEMBL1131516, “Sialyl Lewis X-polysaccharide conjugates: targeting inflammatory lesions” (Bioorg Med Chem Lett, 1998):

Target: T1, E-selectin (Rattus norvegicus, UniProt P98105)
T1 sequence (P98105 whole entry): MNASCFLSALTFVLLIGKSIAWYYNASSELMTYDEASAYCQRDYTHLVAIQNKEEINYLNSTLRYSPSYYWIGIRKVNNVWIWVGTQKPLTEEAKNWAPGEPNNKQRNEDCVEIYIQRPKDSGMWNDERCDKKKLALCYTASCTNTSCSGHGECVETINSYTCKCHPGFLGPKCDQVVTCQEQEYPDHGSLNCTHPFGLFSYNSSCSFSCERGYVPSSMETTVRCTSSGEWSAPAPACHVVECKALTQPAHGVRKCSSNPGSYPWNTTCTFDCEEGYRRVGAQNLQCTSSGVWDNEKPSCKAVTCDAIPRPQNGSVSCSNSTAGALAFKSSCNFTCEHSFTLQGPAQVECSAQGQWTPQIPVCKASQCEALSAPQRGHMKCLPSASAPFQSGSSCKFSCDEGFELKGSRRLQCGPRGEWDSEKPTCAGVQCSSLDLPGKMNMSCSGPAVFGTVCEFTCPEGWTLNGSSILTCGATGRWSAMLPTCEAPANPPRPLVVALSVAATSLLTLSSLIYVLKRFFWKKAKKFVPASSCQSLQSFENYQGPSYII
Experiment: Inhibitory concentration against Selectin E expressed at the inflammatory lesion was measured by inhibition of leukocyte rolling in the inflammatory model using IL-lbeta activated rat mesentery venules. (In vivo )
Assay type: organism-based

IC50: 2630 nM
SMILES: CCOCCOCCOCCOCCOCCO[C@@H]1O[C@@H](CO)[C@@H](O[C@@H]2O[C@@H](CO)[C@H](O)[C@H](O[C@]3(C(=O)O)C[C@@H](O)[C@@H](NC(C)=O)[C@H]([C@H](O)[C@H](O)CO)O3)[C@@H]2O)[C@H](O[C@@H]2O[C@@H](C)[C@@H](O)[C@H](O)[C@@H]2O)[C@@H]1NC(C)=O
